Results published in US8129371B2, “Thienopyrimidine and pyrazolopyrimidine compounds and their use as mTOR kinase and PI3 kinase inhibitors” (Wyeth LLC, priority 2007, dated 2012).
Read-outs that look alike come from different tables or passages of the source.

What was measured:
Human mTOR (FLAG-TOR) = target: T1, Human mTOR (FLAG-TOR) (Homo sapiens, UniProt P42345); test: Human mTOR kinase assay with purified enzyme, DELFIA format; type: biochemical
T1 construct: FLAG
Outline: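 Purified FLAG-mTOR in HEPES pH 7.4 buffer with 10 mM MnCl2 was preincubated with inhibitor and reacted 2 h at room temperature with His6-S6K substrate, then stopped with EDTA/EGTA. Phospho-T389 S6K detected by DELFIA with Eu-labelled antibody (40 ng/mL) after plate capture; inhibition computed from signal.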

PI3K [1] = target: T2, PI3K (Homo sapiens, UniProt O00329); test: Fluorescence polarization assay for PI3K; type: biochemical
T2 construct: PI3 Kinase δ IC50; other: PI3 Kinase δ; other: PI3 Kinase δ isoform, fluorescence polarization
T2 sequence (O00329 1-1044): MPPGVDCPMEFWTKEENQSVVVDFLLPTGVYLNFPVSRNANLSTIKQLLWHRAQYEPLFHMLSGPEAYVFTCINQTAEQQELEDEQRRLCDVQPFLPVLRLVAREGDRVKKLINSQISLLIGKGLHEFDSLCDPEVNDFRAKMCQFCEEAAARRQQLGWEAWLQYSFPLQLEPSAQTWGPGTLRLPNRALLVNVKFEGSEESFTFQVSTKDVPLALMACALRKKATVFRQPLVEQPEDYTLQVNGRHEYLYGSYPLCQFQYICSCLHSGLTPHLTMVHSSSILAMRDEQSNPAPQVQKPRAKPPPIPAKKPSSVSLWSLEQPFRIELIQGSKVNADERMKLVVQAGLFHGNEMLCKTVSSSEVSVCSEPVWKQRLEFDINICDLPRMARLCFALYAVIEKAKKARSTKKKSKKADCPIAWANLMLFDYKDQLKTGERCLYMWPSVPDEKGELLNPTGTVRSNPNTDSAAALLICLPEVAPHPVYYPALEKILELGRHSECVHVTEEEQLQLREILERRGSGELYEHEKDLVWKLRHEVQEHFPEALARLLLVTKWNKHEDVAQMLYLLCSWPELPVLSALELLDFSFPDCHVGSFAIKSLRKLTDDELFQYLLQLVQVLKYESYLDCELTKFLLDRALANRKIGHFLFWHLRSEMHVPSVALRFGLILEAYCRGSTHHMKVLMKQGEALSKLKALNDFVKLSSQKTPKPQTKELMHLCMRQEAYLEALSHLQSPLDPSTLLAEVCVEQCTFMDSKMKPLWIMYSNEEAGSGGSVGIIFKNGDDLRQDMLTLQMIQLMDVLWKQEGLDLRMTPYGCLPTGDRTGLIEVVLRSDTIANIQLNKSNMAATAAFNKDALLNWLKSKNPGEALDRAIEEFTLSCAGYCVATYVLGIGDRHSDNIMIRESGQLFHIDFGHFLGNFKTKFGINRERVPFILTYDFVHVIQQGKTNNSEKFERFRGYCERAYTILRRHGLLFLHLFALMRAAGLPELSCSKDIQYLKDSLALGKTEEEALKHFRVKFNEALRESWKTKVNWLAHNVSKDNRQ
Outline: (§1)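 PI3K was preincubated with compound (final DMSO 1%), and the reaction was started with PIP2/ATP substrate and run 30–60 min. It was stopped with a detector mix giving 10 nM red probe and 70 nM GST-GRP.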

PI3K [2] = target: T3, PI3K (Homo sapiens, UniProt P42336); test: Fluorescence polarization assay for PI3K; type: biochemical; settings: read-out: PI3 Kinase α IC50
T3 construct: PI3 Kinase α IC50; other: PI3 Kinase α; other: PI3 Kinase α isoform, fluorescence polarization
Outline: as §1

PI3K [3] = target: T4, PI3K (Homo sapiens, UniProt P42338); test: Fluorescence polarization assay for PI3K; type: biochemical
T4 construct: PI3 Kinase β IC50; other: PI3 Kinase β; other: PI3 Kinase β isoform, fluorescence polarization
Outline: as §1

PI3K [4] = target: T5, PI3K (Homo sapiens, UniProt P48736); test: Fluorescence polarization assay for PI3K; type: biochemical; settings: read-out: PI3 Kinase γ IC50
T5 construct: PI3 Kinase γ IC50; other: PI3 Kinase γ; other: PI3 Kinase γ isoform, fluorescence polarization
Outline: as §1

breast line MDA468 = test: In vitro cell culture growth assay (MTS), MDA468; type: cell-based; settings: Homo sapiens, 72 h, MDA468 cells, three days after drug treatment
Outline: (§2)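 Growth is reported as percent of vehicle-treated control grown in the same plate, with viability determined by metabolic conversion of MTS dye and absorbance read at 490 nm. Compounds were applied one day after plating and left for three days.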

prostate line LNCap = test: In vitro cell culture growth assay (MTS), LNCap; type: cell-based; settings: Homo sapiens, LNCaP, 72 h, LNCap cells, three days after drug treatment
Outline: as §2

[5] = tested on: acute lymphoblastic leukemia xenograft; settings: NOS/SCID xenograft mouse model; Teachey et al, Blood 2006; cited from earlier work
[6] = purified human mTOR enzyme, DELFIA format
[7] = PI3 Kinase δ isoform, fluorescence polarization
[8] = PI3 Kinase α isoform, fluorescence polarization
[9] = PI3 Kinase β isoform, fluorescence polarization
[10] = PI3 Kinase γ isoform, fluorescence polarization

T3 sequence (P42336 whole entry, canonical isoform): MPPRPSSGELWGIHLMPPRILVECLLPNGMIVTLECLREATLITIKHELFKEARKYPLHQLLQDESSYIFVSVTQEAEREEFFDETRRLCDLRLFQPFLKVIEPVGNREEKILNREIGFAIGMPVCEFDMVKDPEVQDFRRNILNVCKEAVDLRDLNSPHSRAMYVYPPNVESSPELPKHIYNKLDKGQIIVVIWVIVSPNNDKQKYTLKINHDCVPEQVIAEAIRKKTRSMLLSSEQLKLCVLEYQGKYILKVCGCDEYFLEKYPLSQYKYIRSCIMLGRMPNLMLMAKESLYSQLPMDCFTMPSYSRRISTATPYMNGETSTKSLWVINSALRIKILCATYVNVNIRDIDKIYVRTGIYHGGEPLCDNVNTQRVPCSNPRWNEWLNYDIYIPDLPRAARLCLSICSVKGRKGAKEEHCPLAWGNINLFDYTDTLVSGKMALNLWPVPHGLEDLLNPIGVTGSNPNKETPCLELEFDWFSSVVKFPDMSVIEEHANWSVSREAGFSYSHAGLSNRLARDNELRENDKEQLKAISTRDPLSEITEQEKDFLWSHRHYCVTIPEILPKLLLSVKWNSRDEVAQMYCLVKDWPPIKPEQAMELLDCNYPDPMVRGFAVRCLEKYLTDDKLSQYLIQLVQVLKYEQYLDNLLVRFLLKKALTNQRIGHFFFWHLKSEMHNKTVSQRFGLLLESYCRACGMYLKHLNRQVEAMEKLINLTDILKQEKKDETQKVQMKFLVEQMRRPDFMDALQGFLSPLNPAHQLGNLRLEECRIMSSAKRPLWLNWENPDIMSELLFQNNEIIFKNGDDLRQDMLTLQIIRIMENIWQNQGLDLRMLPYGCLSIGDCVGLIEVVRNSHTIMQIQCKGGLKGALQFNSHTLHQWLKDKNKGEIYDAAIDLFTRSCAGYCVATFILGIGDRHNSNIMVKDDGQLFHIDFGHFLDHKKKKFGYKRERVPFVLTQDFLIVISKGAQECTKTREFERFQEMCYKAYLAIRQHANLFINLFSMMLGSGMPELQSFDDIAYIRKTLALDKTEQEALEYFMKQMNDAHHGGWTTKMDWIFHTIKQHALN
T5 sequence (P48736 whole entry, canonical isoform): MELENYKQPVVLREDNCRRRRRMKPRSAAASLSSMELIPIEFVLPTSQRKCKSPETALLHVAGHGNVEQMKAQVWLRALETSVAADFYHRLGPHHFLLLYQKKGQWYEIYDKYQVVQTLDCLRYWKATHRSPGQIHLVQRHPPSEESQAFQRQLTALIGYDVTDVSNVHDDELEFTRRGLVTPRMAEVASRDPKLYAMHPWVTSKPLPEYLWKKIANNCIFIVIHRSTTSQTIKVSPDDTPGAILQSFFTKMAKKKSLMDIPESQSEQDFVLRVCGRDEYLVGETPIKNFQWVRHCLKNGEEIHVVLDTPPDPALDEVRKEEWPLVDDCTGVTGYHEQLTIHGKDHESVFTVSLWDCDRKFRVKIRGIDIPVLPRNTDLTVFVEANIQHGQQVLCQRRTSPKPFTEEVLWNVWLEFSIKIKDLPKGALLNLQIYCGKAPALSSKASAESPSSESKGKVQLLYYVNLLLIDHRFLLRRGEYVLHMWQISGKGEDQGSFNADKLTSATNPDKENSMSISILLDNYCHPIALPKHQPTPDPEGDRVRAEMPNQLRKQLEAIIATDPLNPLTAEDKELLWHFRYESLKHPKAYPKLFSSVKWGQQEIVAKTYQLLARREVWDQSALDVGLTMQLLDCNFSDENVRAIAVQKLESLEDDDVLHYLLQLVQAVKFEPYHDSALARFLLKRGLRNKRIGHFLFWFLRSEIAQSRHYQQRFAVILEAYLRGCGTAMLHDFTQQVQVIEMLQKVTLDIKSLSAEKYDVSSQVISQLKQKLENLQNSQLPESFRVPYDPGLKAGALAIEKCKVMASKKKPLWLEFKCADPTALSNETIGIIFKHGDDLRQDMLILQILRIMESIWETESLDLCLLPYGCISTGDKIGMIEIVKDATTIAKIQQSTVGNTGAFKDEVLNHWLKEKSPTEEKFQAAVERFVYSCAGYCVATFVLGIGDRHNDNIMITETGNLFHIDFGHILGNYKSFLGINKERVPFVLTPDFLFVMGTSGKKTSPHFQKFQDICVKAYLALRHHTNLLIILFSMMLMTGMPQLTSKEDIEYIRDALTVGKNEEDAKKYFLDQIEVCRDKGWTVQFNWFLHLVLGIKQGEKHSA
T4 sequence (P42338 whole entry, canonical isoform): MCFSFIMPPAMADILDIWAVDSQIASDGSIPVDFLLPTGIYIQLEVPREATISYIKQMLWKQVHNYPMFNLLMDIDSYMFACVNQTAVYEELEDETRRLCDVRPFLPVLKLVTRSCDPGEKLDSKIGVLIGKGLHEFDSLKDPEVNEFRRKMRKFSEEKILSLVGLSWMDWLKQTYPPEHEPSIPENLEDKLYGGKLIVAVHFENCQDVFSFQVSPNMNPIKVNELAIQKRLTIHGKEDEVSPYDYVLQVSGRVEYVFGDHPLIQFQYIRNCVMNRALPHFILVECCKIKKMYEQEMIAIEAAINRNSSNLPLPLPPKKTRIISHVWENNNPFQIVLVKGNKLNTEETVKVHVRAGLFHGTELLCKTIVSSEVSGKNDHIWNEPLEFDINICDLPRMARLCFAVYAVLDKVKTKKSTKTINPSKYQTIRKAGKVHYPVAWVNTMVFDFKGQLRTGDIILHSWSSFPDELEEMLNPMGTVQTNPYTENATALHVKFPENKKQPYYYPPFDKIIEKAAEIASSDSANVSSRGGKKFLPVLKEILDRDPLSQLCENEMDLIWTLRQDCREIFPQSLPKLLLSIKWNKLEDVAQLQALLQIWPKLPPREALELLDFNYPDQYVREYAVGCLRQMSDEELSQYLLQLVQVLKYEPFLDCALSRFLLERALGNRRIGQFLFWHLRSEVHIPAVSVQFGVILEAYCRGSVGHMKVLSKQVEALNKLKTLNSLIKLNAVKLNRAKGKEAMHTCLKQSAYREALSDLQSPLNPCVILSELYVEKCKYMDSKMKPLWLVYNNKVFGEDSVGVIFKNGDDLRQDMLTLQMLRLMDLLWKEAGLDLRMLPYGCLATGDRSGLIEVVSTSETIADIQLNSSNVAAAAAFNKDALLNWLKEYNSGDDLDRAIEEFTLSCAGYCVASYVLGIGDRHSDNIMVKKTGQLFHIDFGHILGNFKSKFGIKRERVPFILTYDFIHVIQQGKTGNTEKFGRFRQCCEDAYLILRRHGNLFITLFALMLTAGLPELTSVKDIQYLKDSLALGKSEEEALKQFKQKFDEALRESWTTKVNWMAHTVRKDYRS

SMILES | IC50 (Human mTOR (FLAG-TOR)) | IC50 (PI3K [1]; PI3 Kinase δ) | IC50 (PI3K [2]; PI3 Kinase α) | IC50 (PI3K [3]; PI3 Kinase β) | IC50 (PI3K [4]; PI3 Kinase γ) | IC50 (breast line MDA468) | IC50 (prostate line LNCap) | IC50 (Human mTOR (FLAG-TOR); [6]) | IC50 (PI3K [1]; [7]) | IC50 (PI3K [2]; [8]) | IC50 (PI3K [3]; [9]) | IC50 (PI3K [4]; [10]) | activity in xenograft mouse model of acute lymphoblastic leukemia [5]
CNC(=O)Nc1ccc(-c2nc(N3CC4CCC(C3)O4)c3cnn(C4CCC5(CC4)OCCO5)c3n2)cc1 [Example 105, 1-(4-(4-(8-oxa-3-azabicyclo[3.2.1]octan-3-yl)-1-(1,4-dioxaspiro[4.5]decan-8-yl)-1H-pyrazolo[3,4-d]pyrimidin-6-yl)phenyl)-3-methylurea] | 0.21 nM | 2380 nM | 1180 nM | > 10 µM | > 10 µM | 26 nM |  |  |  |  |  |  | 
O=C(Nc1ccc(-c2nc(N3CC4CCC(C3)O4)c3cnn(CC(F)(F)F)c3n2)cc1)OCCO [Example 110, 2-hydroxyethyl {4-[4-(8-oxa-3-azabicyclo[3.2.1]oct-3-yl)-1-(2,2,2-trifluoroethyl)-1H-pyrazolo[3,4-d]pyrimidin-6-yl]phenyl}carbamate] | 0.6 nM | 12000 nM | 1050 nM | > 10 µM | 12 µM | 42 nM | 2.3 nM |  |  |  |  |  | 
CN1CCN(c2ccc(NC(=O)Nc3ccc(-c4nc(N5CC6CCC(C5)O6)c5cnn(CC(F)(F)F)c5n4)cc3)cc2)CC1 [Example 261, 1-[4-(4-methylpiperazin-1-yl)phenyl]-3-{4-[4-(8-oxa-3-azabicyclo[3.2.1]oct-3-yl)-1-(2,2,2-trifluoroethyl)-1H-pyrazolo[3,4-d]pyrimidin-6-yl]phenyl}urea] | 0.776 nM | 945 nM | 142 nM |  |  | 2 nM | 1 nM |  |  |  |  |  | 
O=C(Nc1ccc(-c2nc(N3C[C@@H]4C[C@H]3CO4)c3cnn(CC(F)(F)F)c3n2)cc1)NC1CC1 [Example 296, 1-cyclopropyl-3-(4-{4-[(1S,4S)-2-oxa-5-azabicyclo[2.2.1]hept-5-yl]-1-(2,2,2-trifluoroethyl)-1H-pyrazolo[3,4-d]pyrimidin-6-yl}phenyl)urea] |  |  |  |  |  | 138 nM | 67 nM | 1.87 nM | 6820 nM | 4050 nM | > 10 µM | 1.07 µM | 
COC1CCC(n2ncc3c(N4CC5CCC(C4)O5)nc(-c4ccc(NC(=O)NC5CC5)cc4)nc32)CC1 (stereo not shown) [Example 302, 1-cyclopropyl-3-{4-[1-(4-methoxycyclohexyl)-4-(8-oxa-3-azabicyclo[3.2.1]oct-3-yl)-1H-pyrazolo[3,4-d]pyrimidin-6-yl]phenyl}urea] |  |  |  |  |  | 7 nM | 2 nM | 0.3 nM | 1740 nM | 3920 nM | > 10 µM | 8.02 µM | 
COC1CCC(n2ncc3c(N4CC5CCC(C4)O5)nc(-c4ccc(NC(=O)Nc5ccc(N6CCN(C)CC6)cc5)cc4)nc32)CC1 (stereo not shown) [Example 304, 1-{4-[1-(4-methoxycyclohexyl)-4-(8-oxa-3-azabicyclo[3.2.1]oct-3-yl)-1H-pyrazolo[3,4-d]pyrimidin-6-yl]phenyl}-3-[4-(4-methylpiperazin-1-yl)phenyl]urea] |  |  |  |  |  | 1 nM | < 1 nM | 0.265 nM | 200 nM | 239 nM | 2.84 µM | 0.72 µM | 
CO[C@H]1C[C@@H]2CC[C@@H](C)[C@@](O)(O2)C(=O)C(=O)N2CCCC[C@H]2C(=O)O[C@H]([C@H](C)C[C@@H]2CC[C@@H](OC(=O)C(C)(CO)CO)[C@H](OC)C2)CC(=O)[C@H](C)/C=C(\C)[C@@H](O)[C@@H](OC)C(=O)[C@H](C)C[C@H](C)/C=C/C=C/C=C/1C [Torisel] |  |  |  |  |  |  |  |  |  |  |  |  | active
